From patent US20030044399A1, “Method of treatment” (SmithKline Beecham Corporation, priority 1998, published 2003)

Tests used:
Rhodazain = Rhodazain (Trypanosoma brucei rhodesiense, UniProt Q95PM0); experiment: Cysteine protease inhibition, progress curve method, rhodazain; assay type: biochemical, Trypanosoma brucei rhodesiensi; conditions: Rhodazain Ki (nM), 10 uM Cbz-Leu-Arg-AMC, 100 mM Na acetate pH 5.5, 5 mM cysteine
Schisto B 1 = Schisto B 1 (Schistosoma mansoni, UniProt P25792); experiment: Cysteine protease inhibition, progress curve method, schistosoma B 1; assay type: biochemical; conditions: 10 uM Cbz-Phe-Arg-AMC, 100 mM Na acetate pH 5.5, 5 mM cysteine; read-out: Schisto B 1 Ki
Description: (§1) Standard assay conditions for the determination of kinetic constants used 10 uM fluorogenic peptide substrate, Cbz-Phe-Arg-AMC for the cysteine proteases from Leishmania spp and Schistosoma Mansoni, Cbz-Leu-Arg-AMC for the cysteine proteases from Plasmodium falciparum and Trypanosoma brucei rhodesiensi, and Ac-Lys-Glu-Lys-Leu-Arg-AMC (4 uM final substrate concentration) for the cysteine protease from Trypoanosoma cruzi, and were determined in 100 mM Na acetate at pH 5.5 containing 5 mM cysteine. Stock substrate solutions were prepared at concentrations of […] in DMSO with 10 uM (4 uM for Ac-Lys-Glu-Lys-Leu-Arg-AMC) final substrate concentration in the assays. The final DMSO concentration was 2% and the final volume was 100 uL. All assays were conducted at ambient temperature. Product progress curves were generated over 20 to 30 minutes following formation of AMC product.
(§2) Potential inhibitors were evaluated using the progress curve method. Assays were carried out in the presence of variable concentrations of test compound. Reactions were initiated by addition of enzyme to buffered solutions of inhibitor and substrate. Data analysis was conducted according to one of two procedures depending on the appearance of the progress curves in the presence of inhibitors. For those compounds whose progress curves were linear, apparent inhibition constants (Ki,app) were calculated according to equation 1 (Brandt et al., Biochemitsry, 1989, 28, 140):
(§3) v=VmA/[Ka(1+I/Ki,app)+A] (1)
(§4) Where v is the velocity of the reaction with maximal velocity Vm, A is the concentration of substrate with Michaelis constant of Ka, and I is the concentration of inhibitor.
(§5) [AMC]=vsst+(v0−vss)[1−exp (−kobst)]/kobs (2)
(§6) Where [AMC] is the concentration of product formed over time t, v0 is the initial reaction velocity and vss is the final steady state rate. Values for kobs were then analyzed as a linear function of inhibitor concentration to generate an apparent second order rate constant (kobs/inhibitor concentration or kobs/[I]) describing the time-dependent inhibition. A complete discussion of this kinetic treatment has been fully described (Morrison et al., Adv. Enzymol. Relat. Areas Mol. Biol., 1988, 61, 201).
(§7) Exemplary inhibition data for the compounds used in the present method collected in accordance with the above-described procedure are listed in Table I.

Schisto B 2 = Schisto B 2 (Schistosoma mansoni, UniProt Q95PM1); experiment: Cysteine protease inhibition, progress curve method, schistosoma B 2; assay type: biochemical; conditions: 10 uM Cbz-Phe-Arg-AMC, 100 mM Na acetate pH 5.5, 5 mM cysteine
Description: as §1, §2, §3, §4, §5, §6, §7

Cruzain = Cruzain (Trypanosoma cruzi, UniProt P25779); experiment: Cysteine protease inhibition, progress curve method, cruzain; assay type: biochemical; conditions: 4 uM Ac-Lys-Glu-Lys-Leu-Arg-AMC, 100 mM Na acetate pH 5.5, 5 mM cysteine; read-out: Cruzain Ki
Outline: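 Kinetic constants from AMC-release progress curves over 20–30 min at ambient temperature in 100 mM Na acetate pH 5.5, 5 mM cysteine, 2% DMSO; enzyme added last to inhibitor plus substrate. Substrates: 10 uM Cbz-Phe-Arg-AMC (Leishmania, Schistosoma), 10 uM Cbz-Leu-Arg-AMC (falcipain), 4 uM Ac-Lys-Glu-Lys-Leu-Arg-AMC (cruzain). Ki,app from linear curves; time-dependent inhibition as kobs/[I].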

Falcipain 2 = Falcipain 2 (Plasmodium falciparum, UniProt Q8I6U4); experiment: Cysteine protease inhibition, progress curve method, falcipain; assay type: biochemical; conditions: 10 uM Cbz-Leu-Arg-AMC, 100 mM Na acetate pH 5.5, 5 mM cysteine
Description: as §1, §2, §3, §4, §5, §6, §7

Sequence of Rhodazain (Q95PM0 entry or part of it): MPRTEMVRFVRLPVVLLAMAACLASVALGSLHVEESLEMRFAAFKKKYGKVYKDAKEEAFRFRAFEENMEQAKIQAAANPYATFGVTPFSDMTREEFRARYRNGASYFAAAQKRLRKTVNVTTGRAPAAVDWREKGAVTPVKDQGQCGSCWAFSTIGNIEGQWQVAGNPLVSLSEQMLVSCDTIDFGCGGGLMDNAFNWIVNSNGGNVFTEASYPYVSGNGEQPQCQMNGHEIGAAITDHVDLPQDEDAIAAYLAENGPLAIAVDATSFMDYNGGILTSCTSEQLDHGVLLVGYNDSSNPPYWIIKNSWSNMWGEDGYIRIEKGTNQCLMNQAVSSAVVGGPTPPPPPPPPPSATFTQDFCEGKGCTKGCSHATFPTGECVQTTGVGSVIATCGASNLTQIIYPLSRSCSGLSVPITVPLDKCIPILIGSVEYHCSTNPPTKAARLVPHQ
Sequence of Falcipain 2 (Q8I6U4 244-484): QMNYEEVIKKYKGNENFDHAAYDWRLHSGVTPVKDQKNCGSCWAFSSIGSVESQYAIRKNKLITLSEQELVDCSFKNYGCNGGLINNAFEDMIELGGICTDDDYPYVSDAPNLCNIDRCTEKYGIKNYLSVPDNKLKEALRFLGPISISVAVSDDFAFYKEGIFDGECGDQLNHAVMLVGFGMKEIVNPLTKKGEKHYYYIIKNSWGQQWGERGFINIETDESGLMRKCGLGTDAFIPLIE
Sequence of Cruzain (P25779 123-337): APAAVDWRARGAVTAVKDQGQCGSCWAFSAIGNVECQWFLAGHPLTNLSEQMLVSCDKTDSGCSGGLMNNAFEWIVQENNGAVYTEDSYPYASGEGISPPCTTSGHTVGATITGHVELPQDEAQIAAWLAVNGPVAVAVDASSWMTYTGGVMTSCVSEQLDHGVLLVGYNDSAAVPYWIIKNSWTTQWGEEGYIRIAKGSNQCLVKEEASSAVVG
Sequence of Schisto B 2 (Q95PM1 entry or part of it): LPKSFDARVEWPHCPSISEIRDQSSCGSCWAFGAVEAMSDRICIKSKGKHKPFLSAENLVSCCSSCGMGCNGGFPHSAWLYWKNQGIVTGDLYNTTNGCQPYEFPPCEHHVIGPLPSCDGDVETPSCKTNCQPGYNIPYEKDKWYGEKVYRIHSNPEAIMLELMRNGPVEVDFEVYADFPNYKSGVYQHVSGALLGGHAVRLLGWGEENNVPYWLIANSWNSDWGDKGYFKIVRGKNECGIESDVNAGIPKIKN
Sequence of Schisto B 1 (P25792 89-340): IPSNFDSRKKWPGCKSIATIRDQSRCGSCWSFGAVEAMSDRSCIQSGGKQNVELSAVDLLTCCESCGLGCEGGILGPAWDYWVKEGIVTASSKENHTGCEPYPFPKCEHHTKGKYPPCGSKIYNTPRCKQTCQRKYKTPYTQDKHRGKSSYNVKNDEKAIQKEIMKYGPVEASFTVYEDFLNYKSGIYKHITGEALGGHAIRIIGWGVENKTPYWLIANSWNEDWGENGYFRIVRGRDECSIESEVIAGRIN

Row | Ki (Schisto B 1) | Ki (Schisto B 2) | SMILES | Ki (Rhodazain) | Ki (Cruzain) | Ki (Falcipain 2)
1 | 45 nM | 130 nM | COc1ccc2oc(C(=O)N[C@@H](CC(C)C)C(=O)N[C@H]3CCCN(S(=O)(=O)c4ccc(F)cc4)CC3=O)cc2c1 [Example 85] |  |  | 
2 | 38 nM | 280 nM | COc1ccc(C(=O)N[C@@H](CC(C)C)C(=O)N[C@@H]2CCCN(S(=O)(=O)c3ccc(F)cc3)CC2=O)cc1OC [Example 110, N—{(S)-1-[1-(4-Fluoro-benzenesulfonyl)-3-oxo-azepan-4-ylcarbamoyl}-3-methyl-butyl}-3,4-dimethoxy-benzamide] |  | 7.4 nM | 96 nM
3 | 45 nM | 330 nM | CC(C)C[C@@H](NC(=O)c1ccc2c(c1)OCO2)C(=O)N[C@@H]1CCCN(S(=O)(=O)c2ccc(F)cc2)CC1=O (stereo in doubt) [Example 67, Benzo[1,3]dioxole-5-carboxylic acid {(S)-1-[1-(4-fluoro-benzenesulfonyl)-3-oxo-azepan-4-ylcarbamoyl]-3methyl-butyl}-amide] |  | 11 nM | 
4 | 61 nM | 230 nM | CC(C)C[C@H](NC(=O)c1ccc2ccccc2n1)C(=O)N[C@H]1CCCN(S(=O)(=O)c2ccc(F)cc2)CC1=O [Example 83] |  |  | 
5 | 160 nM | 1100 nM | CC(C)C[C@H](NC(=O)c1cc2ccccc2n1C)C(=O)N[C@H]1CCCN(S(=O)(=O)c2ccc(F)cc2)CC1=O [Example 84] |  |  | 
6 | 78 nM | 360 nM | Cc1c(C(=O)N[C@@H](CC(C)C)C(=O)N[C@H]2CCCN(S(=O)(=O)c3ccc(Cl)cc3)CC2=O)oc2ccccc12 [Example 134, 3-Methyl-benzofuran-2-carboxylic acid-{(S)-1-[1-(4-chloro-benzenesulfonyl)-3-oxo-azepan-4-ylcarbamoyl]-3-methyl-butyl}-amide] |  |  | 
7 | 100 nM | 320 nM | CC(C)C[C@@H](NC(=O)c1cc2cc(OCCN3CCOCC3)ccc2o1)C(=O)NC1CCCN(C(=O)Cc2cccc(-c3ccccn3)c2)CC1=O (single isomer, unassigned) [Example 4] |  |  | 
8 | 41 nM | 170 nM | COc1cccc(S(=O)(=O)N2CCC[C@H](NC(=O)[C@H](CC(C)C)NC(=O)c3cc4ccccc4o3)C(=O)C2)c1 [Example 136, Benzofuran-2-carboxylic acid-{(S)-1-[1-(3-methoxy-benzenesulfonyl)-3-oxo-azepan-4-ylcarbamoyl]-3-methyl-butyl}-amide] |  | 12 nM | 
9 | 67 nM | 380 nM | COc1cccc(S(=O)(=O)N2CCC[C@H](NC(=O)[C@H](CC(C)C)NC(=O)c3cc4cc(OC)ccc4o3)C(=O)C2)c1 [Example 137, 5-Methoxy-benzofuran-2-carboxylic acid-{(S)-1-[1-(3-methoxy-benzenesulfonyl)-3-oxo-azepan-4-ylcarbamoyl]-3-methyl-butyl}-amide] |  | 19 nM | 
10 | 44 nM | 260 nM | CC(C)C[C@H](NC(=O)c1cnc2ccccc2n1)C(=O)N[C@H]1CCCN(S(=O)(=O)c2ccc(F)cc2)CC1=O [Example 86] |  | 23 nM | 
11 | 50 nM | 400 nM | COc1cccc(S(=O)(=O)N2CCC[C@H](NC(=O)[C@H](CC(C)C)NC(=O)c3cc4ccccc4n3C)C(=O)C2)c1 [Example 141, 1-Methyl-1H-indole-2-carboxylic acid-{(S)-1-[1-(3-methoxy-benzenesulfonyl)-3-oxo-azepan-4-ylcarbamoyl]-3-methyl-butyl}-amide] |  |  | 
12 | 77 nM | 140 nM | CC(C)C[C@H](NC(=O)c1cc2ccccc2o1)C(=O)N[C@H]1CCCN(S(=O)(=O)c2cccc(Cl)c2)CC1=O [Example 88, Benzofuran-2-carboxylic acid-{(S)-1-[1-(3-chloro-benzenesulfonyl)-3-oxo-azepan-4ylcarbamoyl]-3-methyl-butyl}-amide] |  |  | 
13 |  |  | CC(C)C[C@@H](NC(=O)c1ccc2[nH]ccc2c1)C(=O)NC1CCCN(S(=O)(=O)c2cccc[n+]2[O-])CC1=O (single isomer, unassigned) [Example 64] | 2.7 nM | 4.1 nM | 6.2 nM
14 |  |  | CC(C)C[C@@H](NC(=O)c1ccc2ncccc2c1)C(=O)N[C@@H]1CCCN(S(=O)(=O)c2ccccn2)CC1=O (single isomer, unassigned) [Example 152] | 1.6 nM | 2 nM | 3.1 nM
15 | 31 nM | 120 nM | CC(C)CC(NC(=O)c1cc2ccccc2o1)C(=O)N[C@@H]1CCCN(S(=O)(=O)c2ccc(F)cc2)CC1=O (stereo partly shown) [Example 109] |  |  | 
16 | 68 nM | 280 nM | COc1cccc(S(=O)(=O)N2CCC[C@H](NC(=O)[C@H](CC(C)C)NC(=O)c3cc4ccccc4s3)C(=O)C2)c1 [Example 140, Benzo[b]thiophene-2-carboxylic acid-{(S)-1-[1-(3-methoxy-benzenesulfonyl)-3-oxo-azepan-4-ylcarbamoyl]-3-methyl-butyl}-amide] |  |  | 
17 |  |  | CC(C)C[C@@H](NC(=O)c1cc2ccccc2o1)C(=O)N[C@@H]1CCCN(S(=O)(=O)c2cccc[n+]2[O-])CC1=O [Example 45] | 2.8 nM | 4.1 nM | 5.7 nM
18 | 64 nM | 230 nM | COc1cccc(S(=O)(=O)N2CCC[C@H](NC(=O)[C@H](CC(C)C)NC(=O)c3oc4ccccc4c3C)C(=O)C2)c1 [Example 139, 3-Methyl-benzofuran-2-carboxylic acid-{(S)-1-[1-(3-methoxy-benzenesulfonyl)-3-oxo-azepan-4-ylcarbamoyl]-3-methyl-butyl}-amide] |  |  | 

Row | SMILES | Ki (Schisto B 1) | Ki (Schisto B 2) | Ki (Rhodazain) | Ki (Cruzain) | Ki (Falcipain 2)
19 | COc1cc2cc(C(=O)N[C@H](CC3CCCCC3)C(=O)NC3CCCN(S(=O)(=O)c4cccc[n+]4[O-])CC3=O)oc2cc1OC (stereo partly drawn) [Example 170, 5,6-Dimethoxy-benzofuran-2-carboxylic acid {(S)-2-cyclohexyl-1-[3-oxo-1-(1-oxy-pyridine-2-sulfonyl)-azepan-4-ylcarbamoyl]-ethyl}-amide] | 49 nM | 82 nM | 4.7 nM |  | 
20 | O=C(N[C@@H](Cc1ccccc1)C(=O)NC1CCCN(S(=O)(=O)c2ccccn2)CC1=O)c1cc2ccccc2o1 (stereo partly drawn) [Example 104, Benzofuran-2-carboxylic acid {(S)-1-[3-oxo-1-(pyridine-2-sulfonyl)-azepan-4-ylcarbamoyl]-2-phenyl-ethyl}-amide] | 76 nM | 270 nM | 3.2 nM | 13 nM | 
21 | O=C(NC(Cc1ccccc1)C(=O)N[C@@H]1CCCN(S(=O)(=O)c2ccccn2)CC1=O)c1cccc2ccccc12 (single isomer, unassigned) [Example 190] | 38 nM | 68 nM | 2.5 nM | 8.4 nM | 
22 | COc1ccc2oc(C(=O)N[C@@H](CC(C)C)C(=O)N[C@H]3CCCN(S(=O)(=O)c4cccs4)CC3=O)cc2c1 [Example 143, 5-Methoxy-benzofuran-2-carboxylic acid-{(S)-3-methyl-1-[3-oxo-1-(thiophene-2-sulfonyl)-azepan-4-ylcarbamoyl]-butyl}-amide] | 55 nM | 110 nM | 6.5 nM | 5.7 nM | 
23 | Cc1occc1S(=O)(=O)N1CCC[C@H](NC(=O)[C@H](CC(C)C)NC(=O)c2cc3ccccc3o2)C(=O)C1 [Example 179] | 11 nM | 110 nM | 5.1 nM | 2.2 nM | 
